{"source": "patent US20200291355A1", "about": "“ENGINEERED ERYTHROID CELLS INCLUDING LOADABLE ANTIGEN-PRESENTING POLYPEPTIDES AND METHODS OF USE” (Rubius Therapeutics, Inc., priority 2019, published 2020)", "test_system": "wt HLA-A2 or ds HLA-A2 antigen-presenting polypeptide (HLA*02:01)", "assay": "Binding kinetics of TAMRA-labeled HPV E7 antigenic polypeptides onto engineered enucleated erythroid cells (flow cytometry)", "design": "species or system human", "details": "10 ng/mL, about 90 minutes, 4° C., RT and 37° C.", "experimental": "To examine the antigenic polypeptide loading kinetics of loadable antigen-presenting polypeptides, the following experiment was performed.", "data": [{"sequence": "YMLDLQPKT [HPV E7-E18K]", "values": [{"measurement": "Loading rate of fluorescent peptide compared with HPV E7-GGK", "setting": "onto cells including ds HLA-A2", "result": "more rapidly"}, {"measurement": "Loading rate of fluorescent peptide compared with HPV E7-GGK", "setting": "onto cells including wt HLA-A2", "result": "more rapidly"}]}]}
